In test [1] the test system is NF-κB dependent transcription. Kind of test: In vivo LPS induced NF-κB dependent transcription in NF-κB::Luc mice, abdominal imaging. The source says: More particularly, transgenic NF-κB::Luc mice were generated using three NF-κB response elements from the Igκ light chain promoter fused to a firefly luciferase gene as described by Carlsen et al. (2002) J. Immunol. 168:1441-1446. Pronuclear microinjection of purified construct DNA was used to generate transgenic founders in the C57BL/6 XCBA/J background. Founders were subsequently back crossed to the C57BL/6 albino background. All experimental protocols were approved by the Institutional Animal Care and Use Committee and conform to the ILAR guide for the care and used of laboratory animals. For in vivo imaging, NF-κB::Luc mice were injected intraperitoneally with luciferin (150 mg/kg) 10 minutes before imaging, anesthetized (using 1-3% isoflurane) and placed into a light-tight camera box. […] Signal data were also quantitated and archived using the Living Image® software. Photons of light were quantitated using an oval region of interest (ROI) of varying sizes depending on the procedure, as described further below.
GL1001 was further tested for in vivo anti-inflammatory activity by examining its effects on bacterial LPS induced NF-κB dependent transcription, in NF-κB::Luc mice. […] Mice were subjected to quantitative abdominal imaging at 2, 4 and 6 h following LPS administration, as described above. […] Luciferase signal was quantitated from several regions of interest. […]

For test [2], the system named is NF-κB dependent transcription. The experiment in a line: LPS induced NF-κB dependent transcription in extracted organs of NF-κB::Luc mice (luciferase lysate assay). In kind it is in vivo. The following applies: GL1001 30 mg/kg, LPS 0.5 mg/kg, vs LPS alone. The text has this: For luciferase assays, organs were extracted and snap frozen in liquid nitrogen. AII tissue samples were placed in lysis buffer with inhibitors (Passive Lysis Buffer (Promega) and Complete Mini Protease Inhibitor Cocktail (Roche, Indianapolis, Ind.)), and were homogenized using a tissue homogenizer (Handishear, Hand-held homogenizer, VirTis, Gardiner, N.Y.). Tissue homogenates were centrifuged and clarified lysates were used for luminometer assays and western blots. For the luminometer assays, Luciferase Assay Substrate (Luciferase Assay System, Promega) was prepared as indicated by the manufacturer and placed in disposable cuvettes. […] Background luminescence readings were obtained and the background readings were subtracted from the luminescent data. Protein concentrations were determined using the BCA Protein Assay Kit (Pierce, Rockford, Ill.) following the manufacturer's protocols and analyzed using a VERSAmax tunable microplate reader and associated Softmax Pro version 3.1.2 software (Molecular Devices, Sunnyvale Calif.). The luminescence for each of the protein lysates was calculated as arbitrary units of light per microgram of protein. […]
GL1001 was further tested for in vivo anti-inflammatory activity by examining its effects on bacterial LPS induced NF-κB dependent transcription, in NF-κB::Luc mice. […] Luciferase signal was quantitated from several regions of interest. […]

The subject of test [3] is DSS-induced colitis in Balb/c mice. Kind of test: DSS-induced colitis in Balb/c mice (Example 7). Type of test: in vivo. The note with it: s.c. b.i.d., GL1001 300 mg/kg. The procedure:
A study was designed with six groups of Balb/c mice: naïve control, DSS followed by vehicle, DSS followed by GL1001 30 mg/kg/day, DSS followed by GL1001 100 mg/kg/day, DSS followed by GL1001 300 mg/kg/day, and DSS followed by sulfasalazine 150 mg/kg/day. Administration of DSS was via drinking water, from day 1 to day 6 of the study. […] Administration of vehicle, GL1001 and sulfasalazine was subcutaneous, twice daily, from day 6 until termination of the study (day 16).
Body weight of each animal was measured at days 1, 3 and 5 (pre-initiation of GL1001 or sulfasalazine treatment) and at days 7, 9, 11 and 13 (post-initiation of GL1001 or sulfasalazine treatment). On these same days, disease activity measurements were recorded, including: • (a) rectal prolapse (0=no prolapse, 1=partial prolapse, 2=moderate prolapse, 3=full prolapse); • (b) stool consistency (0=solid pellet, 1=semi-solid, 2=soft stool, 3=diarrhea); and • (c) fecal occult blood (0=no blood present, 1=occult blood, 2=gross blood).
At termination of the study, colon length was determined and histological analysis was conducted as in Example 6.

Each structure is given as a SMILES string.

Regarding `CC(C)C[C@H](N[C@@H](Cc1cncn1Cc1cc(Cl)cc(Cl)c1)C(=O)O)C(=O)O` [GL1001, (S,S)-2-[1-carboxy-2-[3-(3,5-dichlorobenzyl)-3H-imidazol-4-yl]-ethylamino]-4-methylpentanoic acid], the “LPS induced NF-κB signaling response, abdominal region” value in test [1] (GL1001 30, 100, 300 mg/kg s.c. 1 hour before LPS i.v. (FIG. 4)) is listed as “significantly reduced”. Further, the “LPS induced NF-κB signaling” value in test [1] (at 30 and 100 mg/kg, dose range 3-100 mg/kg (FIG. 5)) is recorded as “significantly reduced”. Moreover, in test [2], the “LPS induced NF-κB signaling in pancreas and uterus, or any other organ analyzed” value is on record as “no statistically significant decrease”; the “reduction of LPS induced NF-κB-dependent transcription in stomachs” value is recorded as “about 37 fold”. For the same molecule, in test [3] (day 7, sulfasalazine 150 mg/kg), the fecal occult blood entry is “reduces” and the stool consistency result is given as “reduces”. In test [3] (day 9, sulfasalazine 150 mg/kg), the percentage weight loss result is listed as “reduces” and the rectal prolapse entry is “reduces”. Further, the “distal colon erosion score” value in test [3] was “reduces”. Also, in test [3] (sulfasalazine 150 mg/kg), the “distal colon crypt score” value is reported as “reduces”, the “distal colon inflammation score” value is reported as “reduces”, the “distal colon total histopathology score” value was “reduces” and the “reduction in colon length” value is recorded as “inhibits reduction”.

These data come from patent US20080234345A1, “METHOD FOR REDUCING OR ALLEVIATING INFLAMMATION IN THE DIGESTIVE TRACT” (Gene Logic Inc., priority 2006, published 2008).
